# Laboratory results: patent US20260224590A1 (priority 2023, published 2026)
# Like-named read-outs stand apart in the source and are kept apart here.
# Columns and labels:
# [1] = depressive episodes associated with bipolar I or II disorder; Calabrese et al. 2021; cited from earlier work
# 5-HT2A receptor [2] = target: T1, 5-HT2A receptor (Homo sapiens, UniProt P28223); assay: radioligand competitive binding assay, affinity for the 5-HT2A receptor; details: [3H]-LSD competition, 293T membranes transiently expressing 5-HT2A receptor
# T1 sequence (P28223 whole entry): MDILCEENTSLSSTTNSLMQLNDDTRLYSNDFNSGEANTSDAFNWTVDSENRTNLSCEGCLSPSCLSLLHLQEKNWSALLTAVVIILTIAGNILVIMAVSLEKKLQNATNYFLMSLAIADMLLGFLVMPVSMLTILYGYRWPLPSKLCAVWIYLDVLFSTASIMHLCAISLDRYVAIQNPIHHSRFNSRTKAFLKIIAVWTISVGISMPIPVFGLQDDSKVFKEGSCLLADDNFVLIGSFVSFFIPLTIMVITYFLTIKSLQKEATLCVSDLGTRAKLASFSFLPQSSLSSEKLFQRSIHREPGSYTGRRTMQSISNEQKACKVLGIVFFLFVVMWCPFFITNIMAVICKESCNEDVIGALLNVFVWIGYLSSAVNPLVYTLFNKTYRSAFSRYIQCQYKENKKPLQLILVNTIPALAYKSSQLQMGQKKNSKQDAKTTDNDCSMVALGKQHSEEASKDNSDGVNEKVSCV
# 5-HT2A receptor [3] = target: T1, 5-HT2A receptor; assay: 5-HT2A receptor downstream β-arrestin2 recruitment in HEK-293T cells; assay type: cell-based; parameters: expressed in transfected cells; host or cells: HEK-293T (ATCC, CRL-11268); details: for β-arrestin2 signaling agonistic activity (% in parentheses): HEK-293T, percentage printed in parentheses beside the nM value, not defined; for signaling pathway selectivity at the 5-HT2A receptor (β-arrestin2 versus G protein): statement on Table 2
# Method: (§1) On the second day, the confluent cells from a 6 cm culture dish were digested and reseeded into a 96-well plate at a volume of 100 μL of culture medium per well. On the third day, the drugs were added for testing. The 96-well plate was taken out from the cell incubator to decant the culture medium. 40 μL of the substrate coelenterazine 400a (final concentration 5 μM) was added to each well, and then 20 μL of different drugs were added sequentially from left to right, ensuring that the final concentration of the drug decreased gradually from bottom to top, with two replicates per treatment. Finally, the prepared samples were loaded on a plate reader for signal quantification. The readout values reflected the recruitment of β-arrestin2 to the membrane or the dissociation of G protein trimer. The former indicated the degree of activation of the downstream β-arrestin2 signaling pathway mediated by the 5-HT2A receptor, and the latter indicated the degree of activation of the downstream G protein signaling pathway mediated by the 5-HT2A receptor.
# 5-HT2A receptor [4] = target: T1, 5-HT2A receptor; assay: 5-HT2A receptor downstream G protein (Gq) signaling, G protein trimer dissociation in HEK-293T cells; assay type: cell-based; parameters: expressed in transfected cells; host or cells: HEK-293T (ATCC, CRL-11268); details: percentage printed in parentheses beside the nM value, not defined
# Method: as §1
# [5] = 10 mg/kg IP, male C57 mice
# Method: The concentration of the compound in mouse plasma was determined using LC-MS/MS, and the relevant pharmacokinetic parameters were calculated to investigate the pharmacokinetic characteristics of the compound in mice.
# Experimental design: 60 male C57 mice (purchased from Suzhou JOINN Laboratory Animal Co., Ltd.) were randomly divided into groups based on weight, with 3 mice per group. The mice were fasted with water ad libitum for 12 to 14 hours one day before test-article administration and fed 4 hours after the administration. The route of administration was intraperitoneal (IP), with a dosing concentration of 1 mg/mL, and a solvent formulation of 10% DMSO+90% saline.
# Sample collection: 0.1 mL of blood was collected from the orbit under isoflurane anesthesia before and after test-article administration, transferred to EDTA K2 tubes, and placed on an ice bath. The samples were centrifuged at 5000 rpm for 10 minutes at 4° C., and the plasma was collected. […] Prior to analysis, all plasma samples were stored at −80° C.
# Data processing: Drug concentrations in plasma and brain tissues were measured using LC-MS (API4000QTRAP triple quadrupole tandem mass spectrometer, equipped with an electrospray ionization source (ESI)). The data collection and control system software utilized was Analyst 1.5.1 (Applied Biosystems). The sample peak integration in the spectrum was conducted automatically; the ratio of the sample peak area to the internal standard peak area was used as an indicator to perform regression with the concentration of the sample. Regression method: Linear regression with a weighting factor of 1/X^2. Pharmacokinetic parameters were analyzed using a non-compartmental model in WinNonlin Professional v6.3 (Pharsight, USA). Cmax is the measured maximum plasma concentration, the area under the plasma concentration-time curve (AUC(0→t)) was calculated by the trapezoidal method, and Tmax is the time to reach peak plasma concentration after administration. Experimental data are presented as “Mean±Standard Deviation” (Mean±SD, n≥3) or “Mean” (n=2).
# [6] = system: C57BL/6J wild-type mice, acute restraint stress; assay: tail suspension test (TST) after acute restraint stress; assay type: in vivo; details: 5 h acute restraint stress, intraperitoneal injection, test after 30 minutes
# Method: (§2) Method: Acute restraint stress (ARS) is frequently used to induce a depressive state in mice. The forced swim test (FST) and tail suspension test (TST) are currently the most commonly used models for inferring “depression-like” behaviors. C57BL/6J wild-type mice (over 8 weeks old, purchased from Shanghai Lingchang Biotech Co., Ltd.) were restrained individually in a rodent restraint device for 5 hours. The mice were restricted from all body movements, but only minimal pain was introduced. During the ARS experiment, the mice were deprived of both food and water. After 5 hours of restraint, a separate group of mice was released and immediately injected intraperitoneally with the test compound. After 30 minutes of recovery, the behavioral changes of the mice were assessed through the Forced Swim Test (FST) or Tail Suspension Test (TST). […] All mice were forced to swim for 6 minutes, and their behavior was recorded using a video camera. The immobility time during the last 4 minutes of the test was recorded. […] In the TST, mice in the control group and those subjected to restraint stress were suspended by their tails with tape for 6 minutes, and their behavior was recorded using a video camera. The immobility time during the last 4 minutes was manually timed and assessed by an observer who was unaware of the treatment conditions.
# dopamine D2 receptor = target: T2, dopamine D2 receptor (Homo sapiens, UniProt P14416); assay: radioligand competitive binding assay, affinity for the dopamine D2 receptor
# T2 construct: expressed in transfected cells; host or cells: HEK-293T (ATCC, CRL-11268)
# T2 sequence (P14416 whole entry, species assumed): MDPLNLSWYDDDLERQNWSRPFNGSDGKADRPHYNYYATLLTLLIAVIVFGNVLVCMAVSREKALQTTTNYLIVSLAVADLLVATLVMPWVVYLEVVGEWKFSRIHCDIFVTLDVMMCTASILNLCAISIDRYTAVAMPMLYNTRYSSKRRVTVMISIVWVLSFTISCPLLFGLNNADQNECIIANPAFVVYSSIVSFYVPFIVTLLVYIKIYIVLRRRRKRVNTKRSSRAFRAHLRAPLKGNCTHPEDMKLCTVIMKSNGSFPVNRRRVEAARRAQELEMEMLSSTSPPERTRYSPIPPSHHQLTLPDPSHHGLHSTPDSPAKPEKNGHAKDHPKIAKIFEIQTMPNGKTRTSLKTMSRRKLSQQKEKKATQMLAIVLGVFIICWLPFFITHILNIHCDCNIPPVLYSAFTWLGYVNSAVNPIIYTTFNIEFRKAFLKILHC
# Method: Method: The affinity of the compounds of the present disclosure for the dopamine D2 receptor was determined using a radioligand competitive binding assay as follows. In the first step, a cell membrane component containing dopamine D2 receptor was prepared. […] 48 hours post-transfection, the 10 cm culture dish was taken out from the cell incubator and the cultured cells had expressed the dopamine D2 receptor. The culture medium was aspirated using a vacuum pump, and 3 mL of lysis buffer was added to each culture dish. The cells were then placed in a cold room at 4° C. for 10 minutes. After the cells were detached, they were transferred to a 15 mL centrifuge tube and centrifuged at 1500 rpm for 5 minutes at 4° C., and the supernatant was discarded. The cell pellet was transferred to a tissue homogenizer, and 3 mL of lysis buffer was added. Sufficient grinding was applied to break the cells. The cell suspension was then equally aliquoted into several Eppendorf tubes and centrifuged at 12000 rpm for 5 minutes at 4° C., and the supernatant was discarded. The resulting precipitate was the cell membrane component containing the dopamine D2 receptor. […] The machine readout value reflected the amount of [3H]-Methylspiperone bound on the membrane, and after further data processing, the affinity Ki values of different compounds for the dopamine D2 receptor were obtained.
# [7] = system: C57BL/6J wild-type mice, acute restraint stress; assay: forced swim test (FST) after acute restraint stress; assay type: in vivo; details: 5 h acute restraint stress, intraperitoneal injection, test after 30 minutes
# Method: as §2
# C57BL/6J mice = assay: head-twitch response in mice (hallucinogenic effects); assay type: in vivo; details: intraperitoneal injection, first 30 minutes, all doses tested
# Source text: Method: The head-twitch response in mice was detected via oscillatory signals to characterize hallucinogenic effects. Mice (strain C57BL/6J, purchased from Shanghai Lingchang Biotech Co., Ltd.) were anesthetized with 2% isoflurane. A small portion of the scalp was removed from the center of the dorsal cranium. A custom-made small neodymium magnet (4 mm×4 mm×2 mm) was attached to the center of the dorsal cranium using dental resin. The magnet N-S poles were kept parallel to the dorsoventral aspect of the implant. The mice were allowed to recover for 1 week before testing. To record precise head movements, the mice were placed in a glass beaker with a diameter of 12 cm, surrounded by 150 turns of #30 enameled copper wire. The output signal from the coil was recorded using a PowerLab/4SP instrument installed with LabChart V8.1.16 software. Coil voltage was amplified, low-pass filtered at 10 kHz to remove radio frequency interference, and sampled at 40 kHz. For the detection of head-twitch response in mice, LabChart data were processed with a digital band-pass filter at 40 to 200 Hz. The head-twitch response in mice was identified by searching for sinusoidal wavelets that met the following criteria: 1) containing more than two bipolar peaks; 2) amplitude exceeding background noise level; 3) duration less than 120 milliseconds. 1 hour prior to the test, the mice were transferred to the test room for acclimatization. Subsequently, the mice were placed in the beaker for 30 minutes, and baseline head-twitch response values were recorded. Immediately after baseline recording, the mice were injected intraperitoneally with the test compound, and head-twitch response values were recorded for 1 to 2 hours post-dose, depending on the compound used. Statistical values were taken from the first 30 minutes.
# [8] = read-out: Ki, affinity for the 5-HT2A receptor
# [9] = Ki, affinity for the 5-HT2A receptor
structure (smiles),measurement,setting,value
CN1CCN2c3c(cccc31)[C@@H]1CN(CCCC(=O)c3ccc(F)cc3)CC[C@@H]12 [lumateperone],patient response rate,[1],51.1%
"CN1CCN2c3c(cccc31)[C@@H]1CN(Cc3ccccc3O)CC[C@@H]12 [I-2, 2-(((6bR,10aS)-3-methyl-2,3,6b,9,10,10a-hexahydro-1H-pyrido[3′,4′:4,5]pyrrolo[1,2,3-de]quinoxalin-8 (7H)-yl)methyl)phenol]",Ki,5-HT2A receptor [2]; [8],525 nM
same,β-arrestin2 signaling agonistic activity (% in parentheses),5-HT2A receptor [3],(68.4%)
same,Gq signaling agonistic activity (% in parentheses),5-HT2A receptor [4],(65.3%)
"COc1ccccc1CCCN1CCC2C(C1)c1cccc3c1N2CCC3 (single isomer, unassigned) [I-18]",Ki,5-HT2A receptor [2]; [9],57 nM
COc1ccccc1CCCN1CC[C@H]2[C@@H](C1)c1cccc3c1N2CCN3C [I-10],AUC0-inf,[5]; brain,1346 h · ng · mL^−1 or ng · g^−1
same,AUC0-t,[5]; brain,1335 h · ng · mL^−1 or ng · g^−1
same,AUMC0-inf,[5]; brain,2054 h · h · ng · mL^−1 or ng · g^−
same,AUMC0-t,[5]; brain,1979 h · h · ng · mL^−1 or ng · g^−
same,Cmax,[5]; brain,566 ng/g
same,MRT,[5]; brain,91.8 min
same,T1/2,[5]; brain,48.1 min
same,tmax,[5]; brain,30 min
same,AUC0-inf,[5]; plasma,582 ng·h/mL
same,AUC0-t,[5]; plasma,576 ng·h/mL
same,Cmax,[5]; plasma,225 ng/mL
same,MRT,[5]; plasma,127 min
same,T1/2,[5]; plasma,63.6 min
same,tmax,[5]; plasma,4.98 min
same,antidepressant effect in the TST (immobility time),[6],significant antidepressant effect
same,Ki,5-HT2A receptor [2]; [8],13 nM
same,"affinity for the dopamine receptor, in words",dopamine D2 receptor,weak affinity
same,antidepressant effect in the FST (immobility time),[7],significant antidepressant effect
same,β-arrestin2 signaling agonistic activity (% in parentheses),5-HT2A receptor [3],(12.7%)
same,hallucinogenic effects (head-twitch response),C57BL/6J mice,did not induce hallucinogenic effects
"CN1CCN2c3c(cccc31)[C@@H]1CN(CCCc3ccccc3O)CC[C@@H]12 [I-11, 2-(3-((6bR,10aS)-3-methyl-2,3,6b,9,10,10a-hexahydro-1H-pyrido[3′,4′:4,5]pyrrolo[1,2,3-de]quinoxalin-8 (7H)-yl)propyl)phenol]",β-arrestin2 signaling agonistic activity (% in parentheses),5-HT2A receptor [3],(36.8%)
same,Gq signaling agonistic activity (% in parentheses),5-HT2A receptor [4],(9.7%)
"COc1ccccc1CCCN1CCC2C(C1)c1cccc3c1N2CCCN3C (single isomer, unassigned) [I-14]",Ki,5-HT2A receptor [2]; [9],28 nM
COc1cccc(CCN2CC[C@H]3[C@@H](C2)c2cccc4c2N3CCN4C)c1OC [I-6],Ki,5-HT2A receptor [2]; [8],5240 nM
"COc1ccccc1CCN1CCC2C(C1)c1cccc3c1N2CCCN3C (single isomer, unassigned) [I-13]",β-arrestin2 signaling agonistic activity (% in parentheses),5-HT2A receptor [3],(51.4%)
same,signaling pathway selectivity at the 5-HT2A receptor (β-arrestin2 versus G protein),5-HT2A receptor [3],"selectively activate the recruitment of β-arrestin2 mediated by the 5-HT2A receptor, without activating the G protein signaling pathway"
COc1ccccc1CCN1CC[C@H]2[C@@H](C1)c1cccc3c1N2CCN3C [I-3],antidepressant effect in the TST (immobility time),[6],significant antidepressant effect
same,Ki,5-HT2A receptor [2]; [8],17 nM
same,"affinity for the dopamine receptor, in words",dopamine D2 receptor,weak affinity
same,antidepressant effect in the FST (immobility time),[7],significant antidepressant effect
same,β-arrestin2 signaling agonistic activity (% in parentheses),5-HT2A receptor [3],(39.0%)
same,Gq signaling agonistic activity (% in parentheses),5-HT2A receptor [4],(20.2%)
same,hallucinogenic effects (head-twitch response),C57BL/6J mice,did not induce hallucinogenic effects
COc1ccccc1CCCN1CC[C@@H]2[C@H](C1)c1cccc3c1N2CCCS3 [I-27],β-arrestin2 signaling agonistic activity (% in parentheses),5-HT2A receptor [3],(35.7%)
same,signaling pathway selectivity at the 5-HT2A receptor (β-arrestin2 versus G protein),5-HT2A receptor [3],"selectively activate the recruitment of β-arrestin2 mediated by the 5-HT2A receptor, without activating the G protein signaling pathway"
COc1cccc(CCN2CC[C@H]3[C@@H](C2)c2cccc4c2N3CCN4C)c1 [I-4],Ki,5-HT2A receptor [2]; [8],88 nM
same,β-arrestin2 signaling agonistic activity (% in parentheses),5-HT2A receptor [3],(44.2%)
same,Gq signaling agonistic activity (% in parentheses),5-HT2A receptor [4],(13.7%)
COc1ccc(CCN2CC[C@H]3[C@@H](C2)c2cccc4c2N3CCN4C)cc1 [I-5],Ki,5-HT2A receptor [2]; [8],126 nM
same,β-arrestin2 signaling agonistic activity (% in parentheses),5-HT2A receptor [3],(3.2%)
"CN1CCN2c3c(cccc31)[C@@H]1CN(CCc3ccccc3O)CC[C@@H]12 [I-9, 2-(2-((6bR,10aS)-3-methyl-2,3,6b,9,10,10a-hexahydro-1H-pyrido[3′,4′:4,5]pyrrolo[1,2,3-de]quinoxalin-8 (7H)-yl)ethyl)phenol]",β-arrestin2 signaling agonistic activity (% in parentheses),5-HT2A receptor [3],(14.4%)
"COc1ccccc1CCCN1CCC2C(C1)c1cccc3c1N2CCCN3C (single isomer, unassigned) [I-15]",Ki,5-HT2A receptor [2]; [9],7 nM
same,β-arrestin2 signaling agonistic activity (% in parentheses),5-HT2A receptor [3],(24.3%)
same,signaling pathway selectivity at the 5-HT2A receptor (β-arrestin2 versus G protein),5-HT2A receptor [3],"selectively activate the recruitment of β-arrestin2 mediated by the 5-HT2A receptor, without activating the G protein signaling pathway"
"COc1ccccc1CCCN1CCC2C(C1)c1cccc3c1N2CCC3 (single isomer, unassigned) [I-19]",β-arrestin2 signaling agonistic activity (% in parentheses),5-HT2A receptor [3],(59.4%)
same,signaling pathway selectivity at the 5-HT2A receptor (β-arrestin2 versus G protein),5-HT2A receptor [3],"selectively activate the recruitment of β-arrestin2 mediated by the 5-HT2A receptor, without activating the G protein signaling pathway"
